Target: T1, Acel0264 (Acidothermus cellulolyticus, UniProt A0LRH8)
T1 sequence (A0LRH8 1-356): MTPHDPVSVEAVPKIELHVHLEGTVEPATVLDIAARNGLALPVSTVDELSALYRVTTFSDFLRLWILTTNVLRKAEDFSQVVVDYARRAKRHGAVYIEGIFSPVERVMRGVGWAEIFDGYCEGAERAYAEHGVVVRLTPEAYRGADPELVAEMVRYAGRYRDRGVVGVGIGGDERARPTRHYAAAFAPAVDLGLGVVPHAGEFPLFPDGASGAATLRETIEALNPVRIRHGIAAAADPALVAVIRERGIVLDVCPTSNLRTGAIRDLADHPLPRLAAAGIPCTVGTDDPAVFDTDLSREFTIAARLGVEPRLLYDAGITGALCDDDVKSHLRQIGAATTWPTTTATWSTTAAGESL
Assay: absorbance decrease at […] nm
Format: biochemical
Conditions: read-out: Acel0264 / Km; pH 7.5, 30 °C

SMILES: CCNC(=O)[C@H]1O[C@@H](n2cnc3c(N)ncnc32)[C@H](O)[C@@H]1O [NECA, 1-(6-Amino-9H-purin-9-yl)-1-deoxy-N-ethyl-β-D-ribofuranuronamide]
- Km: 61 µM

From publication PMC3813303 (Biochemistry, 2013)
